One compound from paper PMC467089, “Click estradiol dimers with novel aromatic bridging units: synthesis and anticancer evaluation” (Journal of Enzyme Inhibition and Medicinal Chemistry, 2024) can be followed below.

Data set [1] deals with CEM-DNR (daunorubicin resistant variant of CCRF-CEM). In words: MTS cytotoxicity assay, CEM-DNR. The class given is cell-based, human. Conditions: Homo sapiens, CEM-DNR, 72 h, read-out: IC50 cytotoxic activity CEM-DNR. In outline:
(§1)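 MTS read-out after 72 h compound exposure at 37 °C. Cells plated the day before, treated with fourfold serial dilutions from DMSO stocks; duplicate wells, three independent experiments.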

Data set [2] concerns K562-TAX (paclitaxel-resistant variant of K562). The data set is described as follows: MTS cytotoxicity assay, K562-TAX. To be noted: Homo sapiens, K562-Tax, 72 h, read-out: IC50 cytotoxic activity K562-TAX. It counts as cell-based, human. In a few lines:
as §1
(In general: Tetrazolium assays rely on reduction of a dye to a coloured formazan, in cell work by metabolically active cells.)

Data set [3] has as its system A549 (lung adenocarcinoma). In words: MTS cytotoxicity assay, A549. It counts as cell-based, human. To be noted: Homo sapiens, A549, 72 h, read-out: IC50 cytotoxic activity A549. In a few lines:
as §1

The test system of data set [4] is U2OS (osteosarcoma). In words: MTS cytotoxicity assay, U2OS. It counts as cell-based, human. Conditions: Homo sapiens, U2OS, 72 h, read-out: IC50 cytotoxic activity U2OS. In a few lines:
as §1

Data set [5] is described as follows: MTS cytotoxicity assay, MRC-5. The class given is cell-based. To be noted: human; MTS assay, 72-h incubation, mean ± SD of 3 independent experiments; read-out: IC50 cytotoxic activity MRC-5. In a few lines: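 Cells kept in recommended medium with 10% foetal calf serum and penicillin/streptomycin at 37 °C, 5% CO2, seeded overnight, then exposed to fourfold serial DMSO dilutions of compound for 72 h. Viability was read with MTS reagent; technical duplicates, three biological replicates.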

Data set [6] can be described thus: MTS cytotoxicity assay, BJ. To be noted: human; MTS assay, 72-h incubation, mean ± SD of 3 independent experiments; read-out: IC50 cytotoxic activity BJ. It counts as cell-based. In outline: as §1
A short description of data set [7]: MTS cytotoxicity assay, HUVEC. It counts as cell-based. To be noted: human; MTS assay, 72-h incubation, mean ± SD of 3 independent experiments; read-out: IC50 cytotoxic activity HUVEC. In outline:
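Viability is measured by MTS after cells, seeded overnight, receive fourfold-diluted compounds for 72 h at 37 °C.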

Data set [8] deals with U2OS cells. The data set is described as follows: Immunofluorescence of microtubules / mitotic spindle. It counts as cell-based, human. To be noted: 1 µM, 24-h incubation. An excerpt:
In addition, the presence of aster-like tubulin structures indicated the failure in microtubule elongation (Figure 4, ED5). […] The observed intracellular effects of ED3 and ED5 are consistent with data from in vitro assembly assays and cell cycle analyses, thereby strongly supporting the proposed antimitotic mechanisms of these EDs. […] Importantly, cytotoxic IC50 values may vary depending on the duration of exposure to the drug. A more extended exposure could lead to a decrease in the IC50 value, and vice versa. This temporal factor could also contribute to the observed differential sensitivity among the cell lines. The detailed mechanism and the extent to which these cellular and molecular dynamics (MD) contribute to the observed phenomenon might necessitate further investigation and experimentation.
U2OS cells, cultivated on coverslips, underwent a PBS wash and were then fixed in a solution of 3% paraformaldehyde in a buffer containing 10 mM MES, 150 mM NaCl, 5 mM EGTA, 5 mM MgCl2, 5 mM glucose, adjusted to a pH of 6.1. The nuclei were made visible using Hoechst 33342. Subsequently, a 60-min blocking step with 5% goat serum in PBS (SpinChem, Seattle, WA) was followed by a 60-min incubation with α-tubulin (DM1A) mouse monoclonal antibody (Cell Signaling, Danvers, MA) in PBS supplemented with 1% BSA and 0.3% Triton X-100. Visualisation was achieved using Alexa Fluor-488 conjugated anti-mouse antibodies (Life Technologies, Carlsbad, CA). Between each step, the samples underwent a series of three 5-min washes with PBS. Finally, the samples were mounted using Vectashield Mounting Medium with DAPI and imaged utilising a Zeiss spinning disk confocal microscope equipped with CSU-X1 unit (Yokogawa, Musashino, Japan)[10].

Data set [9] relates to HUVEC cells. The data set is described as follows: Endothelial cell tube formation angiogenesis assay. The class given is cell-based, human. To be noted: 60 nM, 24 h, Matrigel.
Procedure: The experiment was performed in 96-well plates pre-coated with 50 μL of growth factor reduced basement membrane matrix Matrigel (Corning, Corning, NY). The coating was set by incubating the plates for 1 h at 37 °C. Subsequently, HUVEC cells were seeded at a density of 15 000 cells per well, and dissolved test substances were added to this layer in a total volume of 100 μL. The assay plates were then incubated for 24 h to facilitate endothelial tube formation. After this incubation, the cells were stained with Hoechst 33342 (Thermo Fisher Scientific, Waltham, MA) to a final concentration of 10 μM and calcein AM (Invitrogen, Carlsbad, CA) to a final concentration of 2 µg/mL for 30 min, followed by visualisation in DIC and fluorescent modes using a Zeiss fluorescent microscope (Oberkochen, Germany).

Turning to `COc1cc2c(c(OC)c1OC)-c1ccc(OC)c(=O)cc1[C@@H](NC(C)=O)CC2` [Colchicine, reference compound], the IC50 in [1] came out at 1.02 ± 0.21 µM; in data set [2] it was 1.83 ± 0.19 µM; in [3], 0.047 ± 0.028 µM; in data set [4], 0.028 ± 0.014 µM. For the same compound, the concentration for half-maximal inhibition (IC50) at 72 h in data set [5] is 0.055 ± 0.029 µM; in data set [6], more than 50 µM; in data set [7], less than 0.0122 µM. Besides, the “microtubule organisation in mitotic cells (in words)” value in data set [8] is “complete absence of the spindle with diffuse tubulin signal”. The “endothelial cell tube formation (in words)” value in data set [9] is “prevented endothelial cell tube formation”.

For orientation: IC50 means the midpoint of a concentration-inhibition curve.
